Laboratory results: patent US20130210733A1, “METHODS OF TREATING LUNG DISEASE” (Cytokinetics, Inc., priority 2010, published 2013)
Read-outs that look alike come from different tables or passages of the source.

How the values were obtained:
[1] = system: human pulmonary arterial smooth muscle cells from patients with idiopathic pulmonary arterial hypertension (IPAH HPASMC); experiment: IPAH HPASMC proliferation assay; format: cell-based; conditions: for inhibition at 1 µM: Homo sapiens; for inhibition at 1 µM / inhibition of proliferation normalized to FBS-induced growth / effect on proliferation (in words) / effect of combined treatment versus single agents (in words): IPAH HPASMC; for effect on proliferation (in words): concentrations up to 1 uM
Method: (§1) Primary cultures of human pulmonary arterial smooth muscle cells were derived from distal blood vessels taken from lungs harvested from patients with idiopathic pulmonary arterial hypertension (IPAH) who had been treated with iloprost or a combination of epoprostenol and bosentan for at least 1.4 years. Cells were cultured for 24 hours in 6-well plates in a solution of human smooth muscle basal medium (SMBM; TCS Cellworks, UK) with 9% fetal bovine serum (FBS; Invitrogen, US) and penicillin-streptomycin (PenStrep; 50 units/mL; Invitrogen, US). The incubating solution was then changed to PenStrep in SMBM and the cells were allowed to incubate for another 48 hours. Test compounds were administered to the test wells as DMSO solutions with FBS (FBS and DMSO or SMBM were administered to the control wells). After 96 hours of incubation, the cells were trypsinized (0.05% trypsin/EDTA; Invitrogen, US) and 20 uL of cell suspension was added to 20 uL of Accustain solution T and Accustain solution N (Labtech, UK). The cells were counted and their viability assessed using an ADAM Automated Cell Counter (Digital Bio, Korea). Results were expressed in cell number per mL and percent growth compared to FBS-induced growth alone.

[2] = system: human lung fibroblasts from patients with ideopathic pulmonary fibrosis (IPF) with secondary pulmonary arterial hypertension (PAH); experiment: Fibroblast proliferation assay; format: cell-based; conditions: for effect on proliferation (in words): lung fibroblasts from IPF patients with secondary PAH, 1 pM to 1 uM
Method: as §1
(§2) Using the procedure described in Example 1, primary cultures of human lung fibroblasts were derived from lungs harvested from patients with ideopathic pulmonary fibrosis (IPF) with secondary pulmonary arterial hypertension (PAH) who had previously been treated with epoprostenol, bosentan, and/or steroids. Treprostinil sodium was tested in these cells under the conditions described in Example 1 at concentrations of 1 pM, 10 pM, 100 pM, 1 nM, 10 nM, 100 nM, and 1 uM. The experiment was repeated four times and the results were averaged.

[3] = Fibroblast proliferation assay; format: cell-based, human; conditions: Homo sapiens, Fibroblast, read-out: inhibition of proliferation normalized to FBS-induced growth
Method: as §1, §2

[4] = system: human pulmonary arterial smooth muscle cells from healthy patients (normal HPASMC); experiment: Normal HPASMC proliferation assay; format: cell-based; conditions: for inhibition at 1 µM: Homo sapiens, read-out: inhibition of proliferation normalized to FBS-induced growth; for effect on proliferation (in words): normal HPASMC, 1 pM to 1 uM
Method: as §1
As a control, primary cultures of human pulmonary arterial smooth muscle cells were derived from distal blood vessels taken from lungs harvested from healthy patients according to procedure described in Example 1. Treprostinil sodium was tested in these cells under the conditions described in Example 1 at concentrations of 1 pM, 10 pM, 100 pM, 1 nM, 10 nM, 100 nM, and 1 uM. The experiment was repeated four times and the results were averaged.

[5] = 1 uM test compound, 96 hours incubation, cell count, read-out: inhibition of proliferation normalized to FBS-induced growth
[6] = 1 uM test compound, 96 hours incubation, cell count

## COC(c1ccccc1)(c1ccccc1)[C@H](Oc1nc(C)cc(C)n1)C(=O)O [ambrisentan, reference compound]
[1]; [5]
  inhibition at 1 µM: ~25%

## CC(C)Oc1ccc(C(=O)N[C@H](CNC(=O)CN(C)C)Cc2ccc(-c3cn4cccc([C@H](C)O)c4n3)cc2)cc1Cl [Compound B, 3-Chloro-N-{(1S)-2-[(N,N-dimethylglycyl)amino]-1-[(4-{8-[(1S)-1-hydroxyethyl]imidazo[1,2-c]pyridin-2-yl}phenyl)methyl]ethyl}-4-[(1-methylethyl)oxy]benzamide]
[1]; [6]
  inhibition of proliferation normalized to FBS-induced growth: approximately 95%
[1]
  effect on proliferation (in words): inhibited proliferation of IPAH cells in a dose dependent manner

## CCCC[C@@H](NC(=O)[C@@H](Cc1cn(C(=O)OC)c2ccccc12)NC(=O)[C@H](CC(C)(C)C)NC(=O)N1[C@H](C)CCC[C@@H]1C)C(=O)O [BQ788, reference compound]
[1]; [5]
  inhibition at 1 µM: ~20%
[1]
  effect on proliferation (in words): inhibited proliferation of IPAH cells at higher concentrations

## Cc1ccc(C(=O)N(CCCN)[C@@H](c2oc3cc(Cl)ccc3c(=O)c2Cc2ccccc2)C(C)C)cc1 [Compound A, N-(3-Aminopropyl)-N-[(R)-(1-3-benzyl-7-chloro-4-oxo-4H-chromen-2-yl)-2-methyl-propyl]-4-methyl-benzamide]
[1]; [6]
  inhibition of proliferation normalized to FBS-induced growth: approximately 70%
[1]
  effect on proliferation (in words): inhibited proliferation of IPAH cells in a dose dependent manner

## CC#CCC(C)[C@H](O)/C=C/[C@@H]1[C@H]2C/C(=C/CCCC(=O)O)C[C@H]2C[C@H]1O (stereo partly drawn) [iloprost, reference compound]
[1]; [5]
  inhibition at 1 µM: ~40%
[1]
  effect on proliferation (in words): inhibited proliferation of IPAH HPASMC cells in a dose dependent manner

## COc1ccccc1Oc1c(NS(=O)(=O)c2ccc(C(C)(C)C)cc2)nc(-c2ncccn2)nc1OCCO [bosentan, reference compound]
[1]; [5]
  inhibition at 1 µM: ~20%
[1]
  effect on proliferation (in words): inhibited proliferation of IPAH HPASMC cells at higher concentrations

## CS(=O)(=O)O.Cc1ccc(C(=O)N(CCCN)[C@@H](c2nc3cc(Cl)ccc3c(=O)n2Cc2ccccc2)C(C)C)cc1 [ispinesib mesylate, N-(3-aminopropyl)-N-[(1R)-1-(3-benzyl-7-chloro-4-oxo-3,4-dihydroquinazolin-2-yl)-2-methylpropyl]-4-methylbenzamide monomethanesulfonate]
[2]; lung fibroblasts derived from IPF patients with secondary PAH
  potency compared with treprostinil sodium (in words): significantly more potent than treprostinil sodium
[2]
  effect on proliferation (in words): inhibited proliferation of fibroblasts in a dose dependent manner
[3]
  inhibition at 1 µM: ~75%
[1]; 96 h, read-out: inhibition of proliferation normalized to FBS-induced growth, 1 uM test compound, 96 hours incubation, cell count
  inhibition at 1 µM: ~80%
[1]; read-out: inhibition of proliferation normalized to FBS-induced growth, combination, 1 uM ispinesib mesylate and 10 nM treprostinil sodium
  inhibition at 1 µM: ~90%
[1]; read-out: inhibition of proliferation normalized to FBS-induced growth, combination, 1 uM ispinesib mesylate and 100 nM BQ788
  inhibition at 1 µM: ~75%
[1]; read-out: inhibition of proliferation normalized to FBS-induced growth, combination, 1 uM ispinesib mesylate and 100 nM ambrisentan
  inhibition at 1 µM: ~80%
[1]; read-out: inhibition of proliferation normalized to FBS-induced growth, combination, 1 uM ispinesib mesylate and 100 nM bosentan
  inhibition at 1 µM: ~99%
[1]; read-out: inhibition of proliferation normalized to FBS-induced growth, combination, 1 uM ispinesib mesylate, 100 nM ambrisentan and 100 nM BQ788
  inhibition at 1 µM: ~95%
[1]
  effect on proliferation (in words): inhibited proliferation of IPAH cells in a dose dependent manner
[1]; comparison of Examples 9, 16 and 18
  potency in IPAH HPASMCs and fibroblasts compared with normal HPASMCs (in words): significantly more potent at inhibiting proliferation of IPAH HPASMCs and fibroblasts than normal HPASMCs
[1]; ispinesib mesylate (1 pM to 1 uM) with 10 nM treprostinil sodium
  effect of combined treatment versus single agents (in words): enhanced the antiproliferative effects of either agent alone
[1]; ispinesib mesylate (1 pM to 1 uM) with 100 nM bosentan
  effect of combined treatment versus single agents (in words): enhanced the antiproliferative effects of either agent alone
[4]
  inhibition at 1 µM: ~55%
  effect on proliferation (in words): inhibited proliferation of fibroblasts in a dose dependent manner
[4]; normal HPASMCs
  potency compared with treprostinil sodium (in words): slightly more potent than treprostinil sodium

## CCCCC[C@H](O)CC[C@@H]1[C@H]2Cc3cccc(OCC(=O)O)c3C[C@H]2C[C@H]1O [treprostinil sodium, reference compound]
[2]
  effect on proliferation (in words): inhibited proliferation of fibroblasts at higher concentrations
[3]; 1 uM test compound, lung fibroblasts from IPF patients with secondary PAH
  inhibition at 1 µM: ~45%
[1]; [5]
  inhibition at 1 µM: ~60%
[1]
  effect on proliferation (in words): inhibited proliferation of IPAH HPASMC cells in a dose dependent manner
[4]; 1 uM test compound, normal HPASMC from healthy patients
  inhibition at 1 µM: ~35%
[4]
  effect on proliferation (in words): inhibited normal HPASMC proliferation at higher concentrations
